Measurements reported in publication PMC8222254, “Self-assembly of an anion receptor with metal-dependent kinase inhibition and potent in vitro anti-cancer properties” (Nature Communications, 2021).
Several values for one entry are separate records, joined by “and”; a condition that tells them apart may be missing. Identical values can stand only once.

Tests used:
HCT116 p53+/+ = experiment: Immunoblotting of whole cell protein lysates; format: cell-based, human
Protocol: (§1) ARPE-19 and HCT116 p53^+/+ cells were seeded at a density of 3 × 10^5 (ARPE-19) or 5 × 10^5 (HCT116 p53^+/+) in T25 flasks. 24 h after seeding, cells were treated with 10 µM of [L2Cu3]^6+, [L2Zn3]^6+, or vehicle control for 4 h (Fig. 8b) or 5 μM of [L2Cu3]^6+, [L2Zn3]^6+, or vehicle control for 40 h (Fig. 10). Cells were then harvested and lysed in RIPA buffer (Sigma) with the protein concentration of lysates determined by the BCA assay.
(§2) Protein lysates and recombinant proteins were resolved on 15% SDS polyacrylamide gels. Proteins were electroblotted onto nitrocellulose membrane by wet transfer in 1xTris Glycine buffer (Biorad) at 35 mA overnight at room temperature. After blocking of membranes, these were incubated with primary antibody overnight at 4 °C before addition of rabbit or mouse secondary antibody (HRP-conjugated; 1:5000, Dako P0448 or P0260) for 1 h at room temperature and development of blots by enhanced chemiluminescence. Primary antibodies were: anti-Src (total) (Cell Signalling Technology #2123 1:1000), anti-phosphorylated Src (Y527) (Cell Signalling Technology #21055 1:1000), anti-phosphorylated Src (Y416) (Cell Signalling Technology #69435 1:1000), anti-AMPKα (total) (Cell Signalling Technology #2532 1:1000), anti-phosphorylated AMPKα (T172) (Cell Signalling Technology #2535 1:1000), anti-AMPKβ1 (total) (Cell Signalling Technology #4150 1:1000), anti-phosphorylated AMPKβ1 (S108) (abcam ab156890 1:500), anti-phospho-Tyr (pan) (Cell Signalling Technology #8954 1:2000), anti-p53 (Santa Cruz, DO-1 clone, 1:1000,), anti-phosphorylated LDH-A (Y10) (Cell Signalling Technology #8176 1:1000), anti-LDH-A/B (total) (abcam ab134187 1:5000), anti-β-actin (Merck MAB1501, 1:40,000). Quantification of signals was performed by densitometry using Image J software. Uncropped and unprocessed scans are provided in the Source Data file.

ARPE-19 = experiment: Immunoblotting of whole cell protein lysates; format: cell-based, human; conditions: for levels of p53: ARPE19, 5 µM, 40 h
Protocol: as §1, §2

[1] = target: T1, recombinant human AMPK (α1β2γ1) (Homo sapiens, UniProt Q13131); experiment: ATP competition kinase assay; format: biochemical
T1 construct: purchased Promega
Protocol: ATP competition kinase assays were performed by the MRC Protein Phosphorylation and Ubiquitination Unit International Centre for Kinase Profiling (University of Dundee). Inhibition of recombinant human AMPK (α1β2γ1) by 10μM [L2Cu3]^6+ or [L2Zn3]^6+ was evaluated at five different ATP concentrations (0.5, 2, 20, 200 and 500 µM ATP). Substrate competition assays were performed using the ADP-Glo Kinase Assay (Promega) and recombinant human AMPK (α1β2γ1) (Promega) with concentrations of the provided AMPK substrate (SAMStide substrate, Promega) ranging from 1 to 15 mg/ml. Following pre-incubation of substrate with kinase for 5 min 10 µM [L2Cu3]^6+, [L2Zn3]^6+ or solvent control and 50 µM ATP was added to start the kinase reaction. For determination of the effects of AMP on AMPK inhibition by [L2Zn3]^6+, the ADP-Glo Kinase Assay (Promega) was performed in presence of varying of AMP (0, 80, 160 μM).

T1 sequence (Q13131 whole entry): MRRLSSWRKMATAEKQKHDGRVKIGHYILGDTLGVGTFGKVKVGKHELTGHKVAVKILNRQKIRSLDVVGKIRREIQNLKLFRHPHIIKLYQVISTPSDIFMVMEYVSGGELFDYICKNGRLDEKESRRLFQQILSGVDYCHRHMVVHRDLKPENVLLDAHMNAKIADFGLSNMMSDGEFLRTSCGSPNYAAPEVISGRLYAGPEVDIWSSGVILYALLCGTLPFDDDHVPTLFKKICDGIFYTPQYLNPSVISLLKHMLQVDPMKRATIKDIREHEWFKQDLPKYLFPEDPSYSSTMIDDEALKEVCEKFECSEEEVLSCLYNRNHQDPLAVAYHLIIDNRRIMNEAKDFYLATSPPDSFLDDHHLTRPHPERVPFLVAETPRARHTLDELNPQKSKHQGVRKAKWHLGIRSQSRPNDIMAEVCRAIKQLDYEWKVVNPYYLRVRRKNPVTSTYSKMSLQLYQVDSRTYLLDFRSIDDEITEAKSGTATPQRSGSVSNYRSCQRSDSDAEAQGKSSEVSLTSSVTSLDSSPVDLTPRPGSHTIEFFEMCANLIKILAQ
T1 sequence (O43741 whole entry partner): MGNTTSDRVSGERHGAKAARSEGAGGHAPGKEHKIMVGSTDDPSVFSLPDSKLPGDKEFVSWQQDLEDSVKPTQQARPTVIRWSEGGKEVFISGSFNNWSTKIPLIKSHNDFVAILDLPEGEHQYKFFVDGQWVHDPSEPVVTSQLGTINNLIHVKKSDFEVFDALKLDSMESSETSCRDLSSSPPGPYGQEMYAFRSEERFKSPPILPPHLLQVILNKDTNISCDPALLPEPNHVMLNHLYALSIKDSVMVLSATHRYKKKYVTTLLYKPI
T1 sequence (P54619 whole entry partner): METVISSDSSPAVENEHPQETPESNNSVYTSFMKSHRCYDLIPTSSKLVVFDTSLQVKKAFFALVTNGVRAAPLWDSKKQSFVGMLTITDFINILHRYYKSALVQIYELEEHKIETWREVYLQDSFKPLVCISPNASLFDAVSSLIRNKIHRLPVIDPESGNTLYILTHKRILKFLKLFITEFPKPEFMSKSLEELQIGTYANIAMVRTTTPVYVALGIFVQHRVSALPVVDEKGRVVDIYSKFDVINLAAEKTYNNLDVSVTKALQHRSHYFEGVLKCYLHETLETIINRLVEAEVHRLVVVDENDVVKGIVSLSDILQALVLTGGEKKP

## [Cu+2].[Cu+2].[Cu+2].c1ccc(-c2csc(NCCN(CCNc3nc(-c4ccccn4)cs3)CCNc3nc(-c4ccccn4)cs3)n2)nc1.c1ccc(-c2csc(NCCN(CCNc3nc(-c4ccccn4)cs3)CCNc3nc(-c4ccccn4)cs3)n2)nc1 [[L2Cu3]6+]
HCT116 p53+/+; HCT116, 5 µM, 40 h
  increase of p53 levels: ~ 1.7 fold
ARPE-19
  levels of p53: decreased
[1]; ATP conc 0.5 µM
  % Activity remaining compared to 100% DMSO controls, individual replicates: 12.56% and 14.65% and 16.05%
  Mean Activity (%) remaining compared to 100% DMSO controls: 14.42%
[1]; ATP conc 2 µM
  % Activity remaining compared to 100% DMSO controls, individual replicates: 15.11% and 18.68% and 17.31%
  Mean Activity (%) remaining compared to 100% DMSO controls: 17.03%
[1]; ATP conc 20 µM
  % Activity remaining compared to 100% DMSO controls, individual replicates: 12.85% and 11.15% and 12.56%
  Mean Activity (%) remaining compared to 100% DMSO controls: 12.19%
[1]; ATP conc 200 µM
  % Activity remaining compared to 100% DMSO controls, individual replicates: 10.11% and 10.01% and 10.69%
  Mean Activity (%) remaining compared to 100% DMSO controls: 10.27%
[1]; ATP conc 500 µM
  % Activity remaining compared to 100% DMSO controls, individual replicates: 20.03% and 18.99% and 20.22%
  Mean Activity (%) remaining compared to 100% DMSO controls: 19.74%

## CC(=O)[O-].CC(=O)[O-].CC(=O)[O-].CC(=O)[O-].CC(=O)[O-].CC(=O)[O-].[Zn+2].[Zn+2].[Zn+2].c1ccc(-c2csc(NCCN(CCNc3nc(-c4ccccn4)cs3)CCNc3nc(-c4ccccn4)cs3)n2)nc1.c1ccc(-c2csc(NCCN(CCNc3nc(-c4ccccn4)cs3)CCNc3nc(-c4ccccn4)cs3)n2)nc1 [[L2Zn3]6+]
HCT116 p53+/+; HCT116, 5 µM, 40 h
  cellular levels of T172P of AMPKα relative to total AMPKα: increased
  increase of p53 levels: ~ 2.7 fold
HCT116 p53+/+; HCT116, 5 µM, 40 h, pan phospho-tyrosine antibody
  decrease in total levels of Tyr-phosphorylated proteins: ~ 10%
HCT116 p53+/+; HCT116 cancer cells, 10 µM, 4 h
  cellular phospho-Thr172 AMPKα levels: decreased
ARPE-19
  levels of p53: decreased
ARPE-19; ARPE-19, 10µM, 4h, n=1
  p-Y10 LDH-A: modestly decrease
[1]; ATP conc 0.5 µM
  % Activity remaining compared to 100% DMSO controls, individual replicates: 17.76% and 11.76% and 14.76%
  Mean Activity (%) remaining compared to 100% DMSO controls: 14.76%
[1]; ATP conc 2 µM
  % Activity remaining compared to 100% DMSO controls, individual replicates: 15.06% and 12.57% and 9.46%
  Mean Activity (%) remaining compared to 100% DMSO controls: 12.36%
[1]; ATP conc 20 µM
  % Activity remaining compared to 100% DMSO controls, individual replicates: 16.58% and 14.33% and 12.68%
  Mean Activity (%) remaining compared to 100% DMSO controls: 14.53%
[1]; ATP conc 200 µM
  % Activity remaining compared to 100% DMSO controls, individual replicates: 16.91% and 18.22% and 15.98%
  Mean Activity (%) remaining compared to 100% DMSO controls: 17.04%
[1]; ATP conc 500 µM
  % Activity remaining compared to 100% DMSO controls, individual replicates: 15.73% and 11.81% and 15.83%
  Mean Activity (%) remaining compared to 100% DMSO controls: 14.46%
